Experiments:
[1] = molecular target: PHD2 enzyme (residues 181-417) (Homo sapiens (Human), UniProt Q9GZT9); assay: Inhibition of PHD enzyme (LC/MS peptide hydroxylation assay); assay type: biochemical; details: PHD2 (residues 181-417) 5 nM, 60 min pre-incubation, -log(IC50), IC50 molar
Method in brief: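 Hydroxylated peptide quantified by LC/MS after 60 min turnover of 1 uM biotinylated peptide with 2 uM 2-oxoglutarate and 1 mM ascorbate, stopped by excess tight-binding inhibitor. Beforehand, 5 nM enzyme and compound were preincubated 60 min at RT, pH 7.3 HEPES/KCl/TCEP/FeCl2/BSA buffer. Values as pIC50 (−log molar IC50).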

[2] = test system: HIF1a protein in H9c2 rat cardiomyocytes; assay: Cell-based HIF-alpha stabilization assay (inhibition of PHD in cells); details: 24 hrs compound incubation, HIF1a protein by ELISA; for EC50: Rattus norvegicus, H9c2, 24 h, read-out: Inhibition of PHD in cells (pEC50) (converted)
Method in brief: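 HIF1a stabilization was measured by ELISA on lysates of H9c2 rat cardiomyocytes after 24 h exposure to 11 serial compound concentrations, expressed relative to the desferrioxamine maximum. Curve fits gave EC50. EC50pos denotes the concentration producing half the desferrioxamine maximal response.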

Chain of PHD2 enzyme (residues 181-417) (Q9GZT9 181-417): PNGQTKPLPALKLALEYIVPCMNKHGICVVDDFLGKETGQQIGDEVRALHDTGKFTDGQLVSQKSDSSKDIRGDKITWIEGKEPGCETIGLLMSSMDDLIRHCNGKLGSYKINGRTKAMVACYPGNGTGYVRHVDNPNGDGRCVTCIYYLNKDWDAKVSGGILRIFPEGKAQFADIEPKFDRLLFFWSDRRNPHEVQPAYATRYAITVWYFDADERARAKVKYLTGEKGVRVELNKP

| SMILES | PHD Inhibition (pIC50) [1] | EC50 [2] [nM] | IC50 ([1]; read-out: PHD Inhibition (pIC50) (converted)) [nM] | Inhibition of PHD in cells (pEC50) [2] |
| --- | --- | --- | --- | --- |
| N#Cc1ccc(-c2cnn(-c3ccc(C(=O)NCc4ccccc4)cn3)c2O)c(Cl)c1 [Example 196, N-benzyl-6-(4-(2-chloro-4-cyanophenyl)-5-hydroxy-1H-pyrazol-1-yl)nicotinamide] | 6.84 | 3550 | – | – |
| N#Cc1ccc(-c2cnn(-c3ccc(C(=O)NCC4CCOCC4)cn3)c2O)c(Cl)c1 [Example 197, 6-(4-(2-chloro-4-cyanophenyl)-5-hydroxy-1H-pyrazol-1-yl)-N-((tetrahydro-2H-pyran-4-yl)methyl)nicotinamide] | 6.83 | 1580 | – | – |
| CC1(NC(=O)c2ccc(-n3ncc(-c4ccc(C#N)cc4)c3O)nc2)CC1 [Example 198, 6-(4-(4-cyanophenyl)-5-hydroxy-1H-pyrazol-1-yl)-N-(1-methylcyclopropyl)nicotinamide] | 7.35 | 741 | – | – |
| COCC1(NC(=O)c2ccc(-n3ncc(-c4ccc(C#N)cc4)c3O)nc2)CCC1 [Example 199, 6-(4-(4-cyanophenyl)-5-hydroxy-1H-pyrazol-1-yl)-N-(1-(methoxymethyl)cyclobutyl)nicotinamide] | 6.89 | 2340 | – | – |
| COCC(C)(C)NC(=O)c1ccc(-n2ncc(-c3ccc(C#N)cc3)c2O)nc1 [Example 200, 6-(4-(4-cyanophenyl)-5-hydroxy-1H-pyrazol-1-yl)-N-(1-methoxy-2-methylpropan-2-yl)nicotinamide] | 7.09 | 1100 | – | – |
| COCC1(NC(=O)c2ccc(-n3ncc(-c4ccc(C#N)cc4)c3O)nc2)CC1 [Example 201, 6-(4-(4-cyanophenyl)-5-hydroxy-1H-pyrazol-1-yl)-N-(1-(methoxymethyl)cyclopropyl)nicotinamide] | 7.29 | 776 | – | – |
| CC(C)(C)NC(=O)c1ccc(-n2ncc(-c3ccc(C#N)cc3)c2O)nc1 [Example 202, N-(tert-butyl)-6-(4-(4-cyanophenyl)-5-hydroxy-1H-pyrazol-1-yl)nicotinamide] | 7.23 | 724 | – | – |
| COCCCNC(=O)c1ccc(-n2ncc(-c3ccnc(OC)c3)c2O)nc1 [Example 203, 6-(5-hydroxy-4-(2-methoxypyridin-4-yl)-1H-pyrazol-1-yl)-N-(3-methoxypropyl)nicotinamide] | 7.1 | 603 | – | – |
| COc1cc(-c2cnn(-c3ccc(C(=O)NC4CC4)cn3)c2O)ccn1 [Example 204, N-cyclopropyl-6-(5-hydroxy-4-(2-methoxypyridin-4-yl)-1H-pyrazol-1-yl)nicotinamide] | 7.08 | 468 | – | – |
| COCC1(NC(=O)c2ccc(-n3ncc(-c4ccnc(OC)c4)c3O)nc2)CC1 [Example 205, 6-(5-hydroxy-4-(2-methoxypyridin-4-yl)-1H-pyrazol-1-yl)-N-(1-(methoxymethyl)cyclopropyl)nicotinamide] | 6.89 | 631 | – | – |
| Cc1cc(C#N)ccc1-c1cnn(-c2ccc(C(=O)NCCC3CCCCO3)cn2)c1O (centres unmarked) [Example 206, 6-(4-(4-cyano-2-methylphenyl)-5-hydroxy-1H-pyrazol-1-yl)-N-(2-(tetrahydro-2H-pyran-2-yl)ethyl)nicotinamide] | 8.2 | 110 | – | – |
| COc1cc(-c2cnn(-c3ccc(C(=O)NCCC4CCCCO4)cn3)c2O)ccn1 (centres unmarked) [Example 207, 6-(5-hydroxy-4-(2-methoxypyridin-4-yl)-1H-pyrazol-1-yl)-N-(2-(tetrahydro-2H-pyran-2-yl)ethyl)nicotinamide] | 8.3 | 123 | – | – |
| COCCC1(NC(=O)c2ccc(-n3ncc(-c4ccc(C#N)cc4)c3O)nc2)CC1 [Example 208, 6-(4-(4-cyanophenyl)-5-hydroxy-1H-pyrazol-1-yl)-N-(1-(2-methoxyethyl)cyclopropyl)nicotinamide] | 7.8 | 269 | – | – |
| COCCC1(NC(=O)c2ccc(-n3ncc(-c4ccnc(OC)c4)c3O)nc2)CC1 [Example 209, 6-(5-hydroxy-4-(2-methoxypyridin-4-yl)-1H-pyrazol-1-yl)-N-(1-(2-methoxyethyl)cyclopropyl)nicotinamide] | 6.98 | 398 | – | – |
| Cn1ccc(-c2cnn(-c3ccc(C(=O)NCC4CCOCC4)cn3)c2O)cc1=O [Example 211, 6-(5-hydroxy-4-(1-methyl-2-oxo-1,2-dihydropyridin-4-yl)-1H-pyrazol-1-yl)-N-((tetrahydro-2H-pyran-4-yl)methyl)nicotinamide] | 6.47 | 50100 | – | – |
| COCCCNC(=O)c1ccc(-n2ncc(-c3ccc(C#N)cc3F)c2O)nc1 [Example 213, 6-(4-(4-cyano-2-fluorophenyl)-5-hydroxy-1H-pyrazol-1-yl)-N-(3-methoxypropyl)nicotinamide] | 7.45 | 380 | – | – |

| SMILES | PHD Inhibition (pIC50) [1] | EC50 [2] [nM] | IC50 ([1]; read-out: PHD Inhibition (pIC50) (converted)) [nM] | Inhibition of PHD in cells (pEC50) [2] |
| --- | --- | --- | --- | --- |
| COCCCNC(=O)c1ccc(-n2ncc(-c3cc(C)nc(OC)c3)c2O)nc1 [Example 214, 6-(5-hydroxy-4-(2-methoxy-6-methylpyridin-4-yl)-1H-pyrazol-1-yl)-N-(3-methoxypropyl)nicotinamide] | – | 2820 | 174 | – |
| COCCC1(NC(=O)c2ccc(-n3ncc(-c4ccc(C#N)cc4C)c3O)nc2)CC1 [Example 215, 6-(4-(4-cyano-2-methylphenyl)-5-hydroxy-1H-pyrazol-1-yl)-N-(1-(2-methoxyethyl)cyclopropyl)nicotinamide] | 7.21 | 257 | – | – |
| COCCCNC(=O)c1ccc(-n2ncc(-c3ccc(=O)n(C)c3)c2O)nc1 [Example 216, 6-(5-hydroxy-4-(1-methyl-6-oxo-1,6-dihydropyridin-3-yl)-1H-pyrazol-1-yl)-N-(3-methoxypropyl)nicotinamide] | 7.1 | 5250 | – | – |
| COCCCNC(=O)c1ccc(-n2ncc(-c3ccc(CC#N)cc3)c2O)nc1 [Example 217, 6-(4-(4-(cyanomethyl)phenyl)-5-hydroxy-1H-pyrazol-1-yl)-N-(3-methoxypropyl)nicotinamide] | 8.1 | 1230 | – | – |
| CCOc1cc(-c2cnn(-c3ccc(C(=O)NCCCOC)cn3)c2O)ccn1 [Example 218, 6-(4-(2-ethoxypyridin-4-yl)-5-hydroxy-1H-pyrazol-1-yl)-N-(3-methoxypropyl)nicotinamide] | 7.9 | 4680 | – | – |
| COCCCNC(=O)c1ccc(-n2ncc(-c3ccc(CC#N)c(F)c3)c2O)nc1 [Example 219, 6-(4-(4-(cyanomethyl)-3-fluorophenyl)-5-hydroxy-1H-pyrazol-1-yl)-N-(3-methoxypropyl)nicotinamide] | 8.2 | 1230 | – | – |
| N#Cc1ccc(-c2cnn(-c3ccc(C(=O)NCc4ccccc4)cn3)c2O)c(F)c1 [Example 220, N-benzyl-6-(4-(4-cyano-2-fluorophenyl)-5-hydroxy-1H-pyrazol-1-yl)nicotinamide] | 7.13 | 1070 | – | – |
| N#Cc1ccc(-c2cnn(-c3ccc(C(=O)NCC4CCOCC4)cn3)c2O)c(F)c1 [Example 221, 6-(4-(4-cyano-2-fluorophenyl)-5-hydroxy-1H-pyrazol-1-yl)-N-((tetrahydro-2H-pyran-4-yl)methyl)nicotinamide] | 7.11 | 933 | – | – |
| Cc1cc(C#N)ccc1-c1cnn(-c2ccc(C(=O)NCC3CCOCC3)cn2)c1O [Example 222, 6-(4-(4-cyano-2-methylphenyl)-5-hydroxy-1H-pyrazol-1-yl)-N-((tetrahydro-2H-pyran-4-yl)methyl)nicotinamide] | 7.25 | 100 | – | – |
| Cc1cc(-c2cnn(-c3ccc(C(=O)NCC4CCOCC4)cn3)c2O)ccn1 [Example 223, 6-(5-hydroxy-4-(2-methylpyridin-4-yl)-1H-pyrazol-1-yl)-N-((tetrahydro-2H-pyran-4-yl)methyl)nicotinamide] | 5.43 | 50100 | – | – |
| O=C(NCc1ccccc1)c1ccc(-n2ncc(-c3ccncc3)c2O)nc1 [Example 225, N-benzyl-6-(5-hydroxy-4-(pyridin-4-yl)-1H-pyrazol-1-yl)nicotinamide] | 7.56 | 2340 | – | – |
| CO[C@H]1CC[C@@H](NC(=O)c2ccc(-n3ncc(-c4ccc(C#N)cc4)c3O)nc2)CC1 [Example 227, 6-(4-(4-cyanophenyl)-5-hydroxy-1H-pyrazol-1-yl)-N-((1s,4s)-4-methoxycyclohexyl)nicotinamide] | 7.38 | 550 | – | – |
| CO[C@H]1CC[C@H](NC(=O)c2ccc(-n3ncc(-c4ccc(C#N)cc4)c3O)nc2)CC1 [Example 228, 6-(4-(4-cyanophenyl)-5-hydroxy-1H-pyrazol-1-yl)-N-((1r,4r)-4-methoxycyclohexyl)nicotinamide] | 7.48 | – | – | 6.59 |
| CO[C@H]1CC[C@H](NC(=O)c2ccc(-n3ncc(-c4ccc(C#N)cc4)c3O)nc2)CC1 [Example 229, 6-(4-(4-cyanophenyl)-5-hydroxy-1H-pyrazol-1-yl)-N-((1r,4r)-4-methoxycyclohexyl)nicotinamide] | 7.62 | 1050 | – | – |
| COc1cc(C#N)ccc1-c1cnn(-c2ccc(C(=O)N[C@H]3CC[C@@H](OC)CC3)cn2)c1O [Example 230, 6-(4-(4-cyano-2-methoxyphenyl)-5-hydroxy-1H-pyrazol-1-yl)-N-((1s,4s)-4-methoxycyclohexyl)nicotinamide] | 6.83 | 407 | – | – |
